{
  "source": "patent US6706764B2",
  "about": "“Use of creatine or creatine analogs for the treatment of diseases of the nervous system” (Avicena Group, Inc., priority 1994, dated 2004)",
  "key": {"[1]": {"settings": "compared with phosphocreatine; cited from earlier work"}, "[2]": {"system": "malonate striatal excitotoxic lesions", "settings": "cited from earlier work; for protection against lesions in the malonate animal model: intrastriatal malonate; for ATP depletion produced by malonate in vivo: rat"}, "MPTP toxicity": {"system": "MPTP toxicity", "assay": "MPTP toxicity in mice, earlier work of the inventors", "assay_type": "in vivo", "description": "This metabolite is formed by the activity of monoamine oxidase on MPTP. Inhibitors of monoamine oxidase block the neurotoxicity of MPTP in both mice and primates. The specificity of the neurotoxic effects of MPP^+ for dopaminergic neurons appears to be due to the uptake of MPP^+ by the synaptic dopamine transporter. Blockers of this transporter prevent MPP^+ neurotoxicity. […] It binds to complex I at the retenone binding site. […] In vivo studies have shown that MPTP can deplete striatal ATP concentrations in mice."}, "[3]": {"settings": "cited from earlier work"}, "[4]": {"system": "MPTP induced dopaminiergic toxicity", "assay": "MPTP model for Parkinson's disease, striatal dopamine, DOPAC and HVA by HPLC", "assay_type": "in vivo, male Swiss Webster mice", "settings": "for neuroprotection against dopamine depletions: dose response", "description": "The effect of two representative creatine compounds, creatine and cyclocreatine, were evaluated using this model. Creatine and cyclocreatine were administered in the initial pilot experiment as 1% formulation in the feed of animals, and was administered for three weeks before MPTP treatment. MPTP was administered intraperitoneally at a dose of 15 mg/kg every 2 hours for five injections. The animals then remained on either creatine or cyclocreaine supplemented diets for 1 week before sacrifice. The mice examined were male Swiss Webster mice weighing 30-35 grams obtained from Taconic Farms. Control groups recieved either normal saline or MPTP hydrochloride alone. MPTP was administered in 0.1 ml of water. The MPTP was obtained from Research Biochemicals. Eight to twelve animals were examined in each group. Following sacrifice the two striata were rapidly dissected and placed in chilled 0.1 M perchloric acid. Tissue was subsequently sonicated, and aliquots were taken for protein quantification using a fluorometer assay. Dopamine, 3,4-dihydroxyphenylacetic acid (DOPAC), and homovanillic acid (HVA) were quantified by HPLC with 16 electrode electrochemical detection. Concentrations of dopamine and metabolites were expressed as nmol/mg protein. The statistical significance of differences was determined by one-way ANOVA followed by Fisher PLSDpost-hoc test to compare group means.\nA dose response study was conducted where the creatine dose was 0.25%-3.0% of the diet and cyclocreatine 0.25-1.0% of the diet."}, "[5]": {"system": "malonate induced striatal lesions", "assay": "Malonate induced striatal lesions, model for Huntington's disease", "assay_type": "in vivo, rats", "description": "We initially examined whether oral administration of creatine or its analogue cyclocreatine could attenuate malonate lesions. Creatine was administered orally to rats in their feed at doses of 0.25-3.0% of the diet. Cyclocreatine was administered at 0.2-1.0%. Controls received unsupplemented otherwise identical diets. The compounds were administered for two weeks prior to the administration of malonate and then for a further week prior to sacrifice. Malonate was dissolved in distilled deionized water and the pH wad adjusted to 7.4 with 0.1 m HCI. Intrastriatal injections of 1.5 ul of malonate containing 3 μmol were made into the striatum at the level of the Bregma 2.4 mm lateral to the midline and 4.5 mm ventral to the dura. Animals were sacrificed at 7 days by decapitation, and the brains were quickly removed and placed in ice cold 0.9% saline solution. Brains were sectioned at 2 mm intervals. Slices were then placed posterior side down in 2% 2,3,5-triphenyltetrazolium chloride. Slices were stained in the dark at room temperature for 30 minutes and then removed and placed in 4% paraformaldehyde, pH 7.3. Lesions, noted by pale staining, were evaluated on the posterior surface of each section using a Bioquant 4 system by an experienced histologist blinded to experimental conditions. These measurements have been validated by comparing them to measurements obtained on adjacent Nissl stain sections."}, "[6]": {"settings": "mice, up to 1% of diet for 2 weeks or for over 4 weeks; cited from earlier work"}, "[7]": {"settings": "cited from earlier work", "remark": "listed apart in the source"}, "creatine kinase [8]": {"system": "creatine kinase", "settings": "forward reaction, both in vitro and in vivo; cited from earlier work"}, "viral infections": {"system": "viral infections", "settings": "1% dietary; cited from earlier work"}, "[9]": {"settings": "fed to mice, rats and chicks; cited from earlier work"}, "creatine kinase [10]": {"system": "creatine kinase", "settings": "cited from earlier work"}, "[11]": {"settings": "intravenous injection, up to 8 grams/day, patients with cardiac diseases; cited from earlier work"}, "[12]": {"settings": "pilot, 1% in feed, oral, FIG. 4"}},
  "data": [
    {"compound": "3-phosphoryl-1-carboxymethyl-2-iminoimidazolidine [cyclocreatine phosphate]", "values": [
      {"measurement": "stability of the P-N bond", "setting": "[1]", "value": "more stable than that of phosphocreatine"}
    ]},
    {"compound": "COC1=C(OC)C(=O)C(C/C=C(\\C)CC/C=C(\\C)CC/C=C(\\C)CC/C=C(\\C)CC/C=C(\\C)CC/C=C(\\C)CC/C=C(\\C)CC/C=C(\\C)CC/C=C(\\C)CCC=C(C)C)=C(C)C1=O", "note": "[Q10, coenzyme Q10]", "values": [
      {"measurement": "protection against lesions in the malonate animal model", "setting": "[2]", "value": "dose dependent protection"},
      {"measurement": "ATP depletion produced by malonate in vivo", "setting": "[2]", "value": "attenuated"},
      {"measurement": "protection against MPTP toxicity", "setting": "MPTP toxicity", "value": "significantly protect"}
    ]},
    {"compound": "NC1=NCCN1CC(=O)O", "note": "[cyclocreatine, 1-carboxymethyl-2-iminoimidazolidine]", "values": [
      {"measurement": "accumulation in different organs", "setting": "[3]; feeding animals e.g. 1% dietary", "value": "mM concentrations"},
      {"measurement": "tissue uptake", "setting": "[3]; rats receiving dietary 1%", "value": "taken up by muscle, heart and brain"},
      {"measurement": "protection against HVA depletion", "setting": "[4]; 0.5% of the diet, FIG. 5", "value": "not seen"},
      {"measurement": "effect on 3-4-dihydroxyphenyl acetic acid (DOPAC)", "setting": "[4]; dose response study, FIG. 5", "value": "neuroprotection effects"},
      {"measurement": "effect on homovanillic acid (HVA)", "setting": "[4]; dose response study, FIG. 5", "value": "neuroprotection effects"},
      {"measurement": "neuroprotection against dopamine depletions", "setting": "[4]; 0.5% of the diet, FIG. 5", "value": "significant protection"},
      {"measurement": "neuroprotection against dopamine depletions", "setting": "[4]; 1.0% of the diet, FIG. 5", "value": "significant protection"},
      {"measurement": "effect against MPTP induced depletions of homovanillic acid", "setting": "[4]; [12]", "value": "effective"},
      {"measurement": "neuroprotection against MPTP induced dopamine depletions", "setting": "[4]; [12]", "value": "significant neuroprotection"},
      {"measurement": "neuroprotective effect compared with creatine", "setting": "[4]; [12]", "value": "greater than that seen with creatine alone"},
      {"measurement": "protection against DOPAC depletions induced by MPTP", "setting": "[4]; [12]", "value": "significantly protected"},
      {"measurement": "neuroprotection against malonate induced striatal lesions", "setting": "[5]; dose of 1% in the diet, FIG. 2", "value": "significant"},
      {"measurement": "neuroprotection against malonate induced striatal lesions, dose response", "setting": "[5]; increasing doses in the diet: creatine 0.25-3%, cyclocreatine 0.2-1.0%, FIG. 2", "value": "dose dependent neuroprotective effects"},
      {"measurement": "protection against striatal malonate lesions (lesion volume)", "setting": "[5]; initial pilot experiment, oral supplementation in feed, FIG. 1", "value": "protected against striatal malonate lesions"},
      {"measurement": "gross adverse effects", "setting": "[6]", "value": "without gross adverse effects"},
      {"measurement": "growth", "setting": "[7]; in vivo", "value": "grew more slowly than control chicks"},
      {"measurement": "mortality", "setting": "[7]; newly hatched chicks, diet containing 1%, in the presence of antibiotics", "value": "without significant mortality"},
      {"measurement": "phosphorylation by creatine kinase", "setting": "creatine kinase [8]", "value": "phosphorylated efficiently"},
      {"measurement": "antiviral activity", "setting": "viral infections", "value": "observed"},
      {"measurement": "tolerability", "setting": "[9]", "value": "well-tolerated"}
    ]},
    {"compound": "N=C(N)N(CC(=O)O)CC1CO1", "note": "(stereo not shown) [epoxycreatine]", "values": [
      {"measurement": "inactivation of creatine kinase", "setting": "creatine kinase [10]", "value": "completely and irreversibly inactivate"}
    ]},
    {"compound": "Nc1nnc(-c2cccc(Cl)c2Cl)c(N)n1", "note": "[lamotrigine]", "values": [
      {"measurement": "protection against lesions in the malonate animal model", "setting": "[2]", "value": "attenuates the lesions"}
    ]},
    {"compound": "NC(=O)c1cccnc1", "note": "[nicotinimide]", "values": [
      {"measurement": "protection against lesions in the malonate animal model", "setting": "[2]", "value": "dose dependent protection"},
      {"measurement": "ATP depletion produced by malonate in vivo", "setting": "[2]", "value": "attenuated"}
    ]},
    {"compound": "O=C(O)CCC(=O)O", "note": "[succinate]", "values": [
      {"measurement": "malonate lesions on co-injection", "setting": "[2]; co-injection with malonate", "value": "blocks the lesions"}
    ]},
    {"compound": "N-phosphoryl creatine [creatine phosphate]", "values": [
      {"measurement": "adverse side effects", "setting": "[11]", "value": "no adverse side effects"}
    ]},
    {"compound": "isoepoxycreatine", "values": [
      {"measurement": "inactivation of creatine kinase", "setting": "creatine kinase [10]", "value": "completely and irreversibly inactivate"}
    ]}
  ]
}
